Converted amounts (≈) assume the structure as drawn.
Key:
VREfa ATCC51575 = test: microbe, parasite or virus in culture; type: cell-based, Enterococcus faecalis; conditions: ATCC51575, 20 h
Protocol: (§1) For MIC determination, Staphylococcus aureus ATCC25923, Bacillus subtilis 168, Micrococcus luteus DSM1790, Enterococcus faecalis OG1RF, Enterococcus faecium MCC2763, Escherichia coli DH5α and Pseudomonas aeruginosa PAO1 were used as indicator strains. Nisin and vancomycin were used as positive controls. A dilution series of massatide A, massatide B, vancomycin (16, 8, 4, 2, 1, 0.5, 0.25, 0.125, 0.0625, 0.0313 μg/mL) and sistertide A1, kebanetide A1, kebanetide A2, nisin (64, 32, 16, 8, 4, 2, 1, 0.5, 0.25, 0.125 μg/mL) were prepared in 96-well plate from 1–10th column. The indicator strains were added to the compound-containing well. The indicator strain culture with no antibiotics was prepared in the 11th column. The 12th column was filled with 200 μL empty MHB medium. The 96-well plate was incubated at 37 °C for 20 h (30 °C for M. luteus and B. subtilis). The OD600 was detected on MULTISKAN Sky (Thermo Scientific) and MIC values were determined. The MIC values of clinical isolates were determined by Sichuan Primed Shines Bio-tech Co., Ltd. (China) following similar protocol. Levofloxacin was used as a positive control.

LREfa 20-1 = test: microbe, parasite or virus in culture; type: cell-based, Enterococcus faecalis; conditions: 20 h
Protocol: as §1

S. aureus ATCC259923 = test: UDP-N-acetyl-muramic acid pentapeptide levels (HPLC-HRMS); type: cell-based, Staphylococcus aureus; conditions: S. aureus treated with or without massatide A, comparative HPLC-HRMS, preliminary unpublished data
Text: page 26: “Also, there is no discussion about the possible mechanism of antibacterial activity.” We have included a discussion on the proposed mode of action of […] A in the discussion section in lines 388-394 of our manuscript. “Avi(Me)Cys-containing lanthipeptides are reported to target lipid II, an essential precursor in cell wall biosynthesis. […], which shares structural similarities with cacaoidin, may potentially target lipid II or certain membrane proteins involved in peptidoglycan biosynthesis. However, a comprehensive study is necessary to fully uncover the detailed mode of action of […] A, which will be the primary focus of our ongoing research.” In our ongoing study, we have obtained some preliminary unpublished data supporting our hypothesis that […] A may inhibit cell wall biosynthesis. We assessed UDP-N-acetyl-muramic acid pentapeptide levels, an essential precursor in cell wall biosynthesis, in the S. aureus ATCC259923 strain treated with or without […] The mode of action of […] A will be further investigated in our ongoing research. […] 12. p. 16: the data that […] A1 and A2 act synergistically are not convincing - see also main comment above. […] We acknowledge the concern regarding the insufficient evidence supporting the presence of a synergistic effect in our study. As a result, we have opted to remove any conclusions relating to synergy. […]

[1] = system: Acinetobacter baumannii 20-2; test: microbe, parasite or virus in culture; type: cell-based; conditions: 20-2, 20 h
Protocol: as §1

[2] = system: Enterococcus faecium MCC2763; test: microbe, parasite or virus in culture; type: cell-based; conditions: MCC2763, 20 h
Protocol: as §1

[3] = system: Acinetobacter baumannii 20-1; test: microbe, parasite or virus in culture; type: cell-based; conditions: 20-1, 20 h
Protocol: as §1

[4] = system: Klebsiella pneumoniae 15-1; test: microbe, parasite or virus in culture; type: cell-based; conditions: 15-1, 20 h
Protocol: as §1

[5] = system: Staphylococcus aureus ATCC25923; test: microbe, parasite or virus in culture; type: cell-based; conditions: ATCC25923, 20 h
Protocol: as §1

[6] = system: Enterococcus faecalis 19-1; test: microbe, parasite or virus in culture; type: cell-based; conditions: 19-1, 20 h
Protocol: as §1

[7] = system: Micrococcus luteus DSM1790; test: microbe, parasite or virus in culture; type: cell-based; conditions: DSM1790, 20 h
Protocol: as §1

[8] = system: Enterococcus faecalis OG1RF; test: microbe, parasite or virus in culture; type: cell-based; conditions: OG1RF, 20 h
Protocol: as §1

[9] = system: Klebsiella pneumoniae ATCC700603; test: microbe, parasite or virus in culture; type: cell-based; conditions: ATCC700603, 20 h
Protocol: as §1

Bacillus subtilis 168 = test: microbe, parasite or virus in culture; type: cell-based; conditions: 168, 20 h
Protocol: as §1

MRSA ATCC43300 = test: microbe, parasite or virus in culture; type: cell-based, Staphylococcus aureus; conditions: ATCC43300, 20 h
Protocol: as §1

MRSA 15-1 = test: microbe, parasite or virus in culture; type: cell-based, Staphylococcus aureus; conditions: 15-1, 20 h
Protocol: as §1

VMSA ATCC700699 = test: microbe, parasite or virus in culture; type: cell-based, Staphylococcus aureus; conditions: ATCC700699, 20 h
Protocol: as §1

MRSA ATCC33591 = test: microbe, parasite or virus in culture; type: cell-based, Staphylococcus aureus; conditions: ATCC33591, 20 h
Protocol: as §1

LRSA 20-1 = test: microbe, parasite or virus in culture; type: cell-based, Staphylococcus aureus; conditions: 20 h
Protocol: as §1

VMSA ATCC700788 = test: microbe, parasite or virus in culture; type: cell-based, Staphylococcus aureus; conditions: ATCC700788, 20 h
Protocol: as §1

S. aureus ATCC 25923 [10] = system: S. aureus ATCC 25923
Protocol: was used as a negative control.
Experiments were performed in triplicate.
The experiment was performed in triplicate.

S. aureus ATCC 25923 [11] = test: Lysis of S. aureus culture; type: cell-based, Staphylococcus aureus; conditions: S. aureus ATCC 25923 culture OD600 1.0, 10×MIC, 24 h
Protocol: Growth kinetics of S. aureus
Massatide A or B was prepared in a 96-well plate at the concentration of 8×MIC, 4×MIC, 2×MIC, 1×MIC and 0.5×MIC , respectively. The MHB medium with no compound was used as a control. Then, the overnight culture of S. aureus ATCC 25923 cells was added to the medium at 1:1,000. The plate was incubated with shaking in SpectraMax iD3 (MOLECULAR DEVICES) at 30 ℃. OD600 was measured every 30 min for 36 hours. To analyze the lysis, 1mL of S. aureus ATCC 25923 culture (OD600 1.0) was treated with massatide A or vancomycin (10×MIC) for 24h. An untreated sample was used as a negative control. […]
Experiments were performed in triplicate. […]

C/C=C1\NC(=O)C(N(C)C)C(C)SC[C@@H](C(=O)N[C@H](CC)C(=O)N[C@H](C(=O)N[C@@H](C)C(=O)N[C@H](C)C(=O)N[C@@H](Cc2ccccc2)C(=O)N[C@@H](C)C(=O)NC2C(=O)NCC(=O)N[C@@H](Cc3ccc(O)cc3)C(=O)N[C@@H](Cc3ccccc3)C(=O)N[C@H](C)C(=O)N/C=C\SC2C)C(C)C)NC(=O)[C@@H]2CCCN2C(=O)[C@H](C(C)C)NC1=O (stereo partly shown) [Massatide A (1), massatide A]
MIC (VREfa ATCC51575): 4 µg/mL (≈ 2.45 µM) | MIC (LREfa 20-1): 4 µg/mL (≈ 2.45 µM) | UDP-N-acetyl-muramic acid pentapeptide levels (S. aureus ATCC259923): increased levels | MIC [1]: 64 µg/mL (≈ 39.1 µM) | MIC [2]: 2 µg/mL (≈ 1.22 µM) | MIC [3]: 64 µg/mL (≈ 39.1 µM) | MIC [4]: >64 µg/mL | MIC [5]: 0.5 µg/mL (≈ 0.306 µM) | MIC [6]: 4 µg/mL (≈ 2.45 µM) | MIC [7]: 0.06 µg/mL (≈ 0.0367 µM) | MIC [8]: 4 µg/mL (≈ 2.45 µM) | MIC [9]: >64 µg/mL | MIC (Bacillus subtilis 168): 2 µg/mL (≈ 1.22 µM) | MIC (MRSA ATCC43300): 0.25 µg/mL (≈ 0.153 µM) | MIC (MRSA 15-1): 2 µg/mL (≈ 1.22 µM) | MIC (VMSA ATCC700699): 4 µg/mL (≈ 2.45 µM) | MIC (MRSA ATCC33591): 1 µg/mL (≈ 0.612 µM) | MIC (LRSA 20-1): 0.25 µg/mL (≈ 0.153 µM) | MIC (VMSA ATCC700788): 4 µg/mL (≈ 2.45 µM) | MIC to S. aureus after serial passaging (S. aureus ATCC 25923 [10]; 25 days of serial passaging in subinhibitory concentrations, triplicate): 4 µg/mL (≈ 2.45 µM) | change in MIC during serial passaging (S. aureus ATCC 25923 [10]; subsequent 19 days after day 6): No significant change in MIC | lysis of the cell culture (S. aureus ATCC 25923 [11]): did not result in lysis

— publication PMC11162475, “Rule-based omics mining reveals antimicrobial macrocyclic peptides against drug-resistant clinical isolates” (Nature Communications, 2024)
